According to PubChem BioAssay AID1963837 (Molecular Pharmacology Branch, DTP, NCI, 2024):

Tested on: 843126-344-R-J1-PDC complex spheroid viability
Assay: Anticancer human tumor 843126-344-R-J1-PDC patient-derived melanoma cell line growth inhibition [POLQ]
Settings: for IC50: curve of first compound; for viability, T/C: stronger effect = lower value
Procedure, shortened: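 Complex spheroid viability model combining PDC tumour cells with endothelial (HUVEC) and MSC stromal cells. Novobiocin, ART-558 or RP6685 were tested singly and in combination with standard and investigational anticancer drugs. Each was titrated in half-log steps from near clinical Cmax, or from 10 microM where Cmax was unknown.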

[1] = second compound 0.0316 µM, first compound 0.0316 µM
[2] = second compound 0.0316 µM, first compound 0.1 µM
[3] = second compound 0.0316 µM, first compound 0.316 µM
[4] = second compound 0.0316 µM, first compound 1 µM
[5] = second compound 0.0316 µM, first compound 3.16 µM
[6] = second compound 0.0316 µM, first compound 10 µM
[7] = second compound 0.1 µM, first compound 0.0316 µM
[8] = second compound 0.1 µM, first compound 0.1 µM
[9] = second compound 0.1 µM, first compound 0.316 µM
[10] = second compound 0.1 µM, first compound 1 µM
[11] = second compound 0.1 µM, first compound 3.16 µM
[12] = second compound 0.1 µM, first compound 10 µM
[13] = second compound 0.316 µM, first compound 0.0316 µM
[14] = second compound 0.316 µM, first compound 0.1 µM
[15] = second compound 0.316 µM, first compound 0.316 µM
[16] = second compound 0.316 µM, first compound 1 µM
[17] = second compound 0.316 µM, first compound 3.16 µM
[18] = second compound 0.316 µM, first compound 10 µM
[19] = second compound 1 µM, first compound 0.0316 µM
[20] = second compound 1 µM, first compound 0.1 µM
[21] = second compound 1 µM, first compound 0.316 µM
[22] = second compound 1 µM, first compound 1 µM
[23] = second compound 1 µM, first compound 3.16 µM
[24] = second compound 1 µM, first compound 10 µM
[25] = second compound 3.16 µM, first compound 0.0316 µM
[26] = second compound 3.16 µM, first compound 0.1 µM
[27] = second compound 3.16 µM, first compound 0.316 µM
[28] = second compound 3.16 µM, first compound 1 µM
[29] = second compound 3.16 µM, first compound 3.16 µM
[30] = second compound 3.16 µM, first compound 10 µM
[31] = second compound 10 µM, first compound 0.0316 µM
[32] = second compound 10 µM, first compound 0.1 µM
[33] = second compound 10 µM, first compound 0.316 µM
[34] = second compound 10 µM, first compound 1 µM
[35] = second compound 10 µM, first compound 3.16 µM
[36] = second compound 10 µM, first compound 10 µM
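For viability, T/C in this document: spheroids exposed to drugs for seven days before readout.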

## CC1COCCN1c1cc(C2(O)CC3CCC(C2)O3)c2cnn(-c3ccn[nH]3)c2n1 (stereo unspecified) + COC1C(OC(N)=O)C(O)C(Oc2ccc3c(O)c(NC(=O)c4ccc(O)c(CC=C(C)C)c4)c(=O)oc3c2C)OC1(C)C
Second compound 0.0316 µM
  IC50: 0.387 µM
Second compound 0.1 µM
  IC50: 0.485 µM
Second compound 0.316 µM
  IC50: 0.405 µM
Second compound 1 µM
  IC50: 0.391 µM
Second compound 3.16 µM
  IC50: 0.399 µM
Second compound 10 µM
  IC50: 0.493 µM
[1]
  viability, T/C: 83.6%
[2]
  viability, T/C: 66.6%
[3]
  viability, T/C: 53.6%
[4]
  viability, T/C: 38.9%
[5]
  viability, T/C: 22.7%
[6]
  viability, T/C: 14.5%
[7]
  viability, T/C: 78.8%
[8]
  viability, T/C: 78.9%
[9]
  viability, T/C: 53.2%
[10]
  viability, T/C: 38.8%
[11]
  viability, T/C: 27.2%
[12]
  viability, T/C: 18.3%
[13]
  viability, T/C: 92.1%
[14]
  viability, T/C: 64.9%
[15]
  viability, T/C: 51.5%
[16]
  viability, T/C: 44.5%
[17]
  viability, T/C: 22.5%
[18]
  viability, T/C: 15.1%
[19]
  viability, T/C: 73.2%
[20]
  viability, T/C: 68.3%
[21]
  viability, T/C: 51.4%
[22]
  viability, T/C: 36.3%
[23]
  viability, T/C: 27.4%
[24]
  viability, T/C: 14.7%
[25]
  viability, T/C: 88.7%
[26]
  viability, T/C: 55.5%
[27]
  viability, T/C: 53.2%
[28]
  viability, T/C: 46.8%
[29]
  viability, T/C: 26.1%
[30]
  viability, T/C: 15.6%
[31]
  viability, T/C: 72.5%
[32]
  viability, T/C: 66.9%
[33]
  viability, T/C: 54.7%
[34]
  viability, T/C: 41.6%
[35]
  viability, T/C: 25.6%
[36]
  viability, T/C: 11.7%

## CCc1cc2c(N3CCc4c(cc(Cn5ccnc5)cc4-c4cn(C)nc4C(F)(F)F)C3=O)cc(C)nc2c(OC)n1 + COC1C(OC(N)=O)C(O)C(Oc2ccc3c(O)c(NC(=O)c4ccc(O)c(CC=C(C)C)c4)c(=O)oc3c2C)OC1(C)C
Second compound 0.0316 µM
  IC50: > 10 µM
Second compound 0.1 µM
  IC50: 8.91 µM
Second compound 0.316 µM
  IC50: > 10 µM
Second compound 1 µM
  IC50: > 10 µM
Second compound 3.16 µM
  IC50: > 10 µM
Second compound 10 µM
  IC50: > 10 µM
[1]
  viability, T/C: 103%
[2]
  viability, T/C: 78%
[3]
  viability, T/C: 89.6%
[4]
  viability, T/C: 74.5%
[5]
  viability, T/C: 74.3%
[6]
  viability, T/C: 59.8%
[7]
  viability, T/C: 90.6%
[8]
  viability, T/C: 87.1%
[9]
  viability, T/C: 89%
[10]
  viability, T/C: 81.1%
[11]
  viability, T/C: 64.6%
[12]
  viability, T/C: 48.4%
[13]
  viability, T/C: 96.2%
[14]
  viability, T/C: 80.6%
[15]
  viability, T/C: 72.4%
[16]
  viability, T/C: 68.2%
[17]
  viability, T/C: 74.2%
[18]
  viability, T/C: 56.4%
[19]
  viability, T/C: 76.9%
[20]
  viability, T/C: 67.4%
[21]
  viability, T/C: 69.4%
[22]
  viability, T/C: 68.5%
[23]
  viability, T/C: 72.4%
[24]
  viability, T/C: 71.3%
[25]
  viability, T/C: 91.1%
[26]
  viability, T/C: 77.4%
[27]
  viability, T/C: 76.9%
[28]
  viability, T/C: 62.5%
[29]
  viability, T/C: 72.7%
[30]
  viability, T/C: 61.8%
[31]
  viability, T/C: 82.1%
[32]
  viability, T/C: 96.1%
[33]
  viability, T/C: 84.2%
[34]
  viability, T/C: 66.2%
[35]
  viability, T/C: 58.5%
[36]
  viability, T/C: 62.6%

## COc1cc2cc(C(=O)CCC(=O)O)sc2cc1OC + COC1C(OC(N)=O)C(O)C(Oc2ccc3c(O)c(NC(=O)c4ccc(O)c(CC=C(C)C)c4)c(=O)oc3c2C)OC1(C)C
Second compound 0.0316 µM
  IC50: > 10 µM
Second compound 0.1 µM
  IC50: > 10 µM
Second compound 0.316 µM
  IC50: > 10 µM
Second compound 1 µM
  IC50: > 10 µM
Second compound 3.16 µM
  IC50: > 10 µM
Second compound 10 µM
  IC50: > 10 µM
[1]
  viability, T/C: 93.2%
[2]
  viability, T/C: 82.8%
[3]
  viability, T/C: 99.1%
[4]
  viability, T/C: 89.6%
[5]
  viability, T/C: 94.1%
[6]
  viability, T/C: 87.2%
[7]
  viability, T/C: 97.5%
[8]
  viability, T/C: 112%
[9]
  viability, T/C: 103%
[10]
  viability, T/C: 91%
[11]
  viability, T/C: 108%
[12]
  viability, T/C: 94.4%
[13]
  viability, T/C: 91.8%
[14]
  viability, T/C: 104%
[15]
  viability, T/C: 121%
[16]
  viability, T/C: 117%
[17]
  viability, T/C: 89%
[18]
  viability, T/C: 84.4%
[19]
  viability, T/C: 96.1%
[20]
  viability, T/C: 92.7%
[21]
  viability, T/C: 87.3%
[22]
  viability, T/C: 85.6%
[23]
  viability, T/C: 96%
[24]
  viability, T/C: 87.2%
[25]
  viability, T/C: 97.3%
[26]
  viability, T/C: 93.5%
[27]
  viability, T/C: 81.4%
[28]
  viability, T/C: 108%
[29]
  viability, T/C: 97.7%
[30]
  viability, T/C: 109%
[31]
  viability, T/C: 98.8%
[32]
  viability, T/C: 92.7%
[33]
  viability, T/C: 97.8%
[34]
  viability, T/C: 110%
[35]
  viability, T/C: 107%
[36]
  viability, T/C: 90.9%
